Activity calls are given as the source filed them. No cut-off for these calls is given here.
Legend:
[1] = biological target: T1, ALK tyrosine kinase receptor (Homo sapiens, UniProt Q9UM73); assay: Inhibition of ALK (unknown origin) at 10 nM preincubated for 10 mins followed by addition of substrate and ATP for 25 mins by caliper EZ reader method; conditions: time 35.0 min
Target sequence in this assay (Q9UM73 19-1620 limits assumed): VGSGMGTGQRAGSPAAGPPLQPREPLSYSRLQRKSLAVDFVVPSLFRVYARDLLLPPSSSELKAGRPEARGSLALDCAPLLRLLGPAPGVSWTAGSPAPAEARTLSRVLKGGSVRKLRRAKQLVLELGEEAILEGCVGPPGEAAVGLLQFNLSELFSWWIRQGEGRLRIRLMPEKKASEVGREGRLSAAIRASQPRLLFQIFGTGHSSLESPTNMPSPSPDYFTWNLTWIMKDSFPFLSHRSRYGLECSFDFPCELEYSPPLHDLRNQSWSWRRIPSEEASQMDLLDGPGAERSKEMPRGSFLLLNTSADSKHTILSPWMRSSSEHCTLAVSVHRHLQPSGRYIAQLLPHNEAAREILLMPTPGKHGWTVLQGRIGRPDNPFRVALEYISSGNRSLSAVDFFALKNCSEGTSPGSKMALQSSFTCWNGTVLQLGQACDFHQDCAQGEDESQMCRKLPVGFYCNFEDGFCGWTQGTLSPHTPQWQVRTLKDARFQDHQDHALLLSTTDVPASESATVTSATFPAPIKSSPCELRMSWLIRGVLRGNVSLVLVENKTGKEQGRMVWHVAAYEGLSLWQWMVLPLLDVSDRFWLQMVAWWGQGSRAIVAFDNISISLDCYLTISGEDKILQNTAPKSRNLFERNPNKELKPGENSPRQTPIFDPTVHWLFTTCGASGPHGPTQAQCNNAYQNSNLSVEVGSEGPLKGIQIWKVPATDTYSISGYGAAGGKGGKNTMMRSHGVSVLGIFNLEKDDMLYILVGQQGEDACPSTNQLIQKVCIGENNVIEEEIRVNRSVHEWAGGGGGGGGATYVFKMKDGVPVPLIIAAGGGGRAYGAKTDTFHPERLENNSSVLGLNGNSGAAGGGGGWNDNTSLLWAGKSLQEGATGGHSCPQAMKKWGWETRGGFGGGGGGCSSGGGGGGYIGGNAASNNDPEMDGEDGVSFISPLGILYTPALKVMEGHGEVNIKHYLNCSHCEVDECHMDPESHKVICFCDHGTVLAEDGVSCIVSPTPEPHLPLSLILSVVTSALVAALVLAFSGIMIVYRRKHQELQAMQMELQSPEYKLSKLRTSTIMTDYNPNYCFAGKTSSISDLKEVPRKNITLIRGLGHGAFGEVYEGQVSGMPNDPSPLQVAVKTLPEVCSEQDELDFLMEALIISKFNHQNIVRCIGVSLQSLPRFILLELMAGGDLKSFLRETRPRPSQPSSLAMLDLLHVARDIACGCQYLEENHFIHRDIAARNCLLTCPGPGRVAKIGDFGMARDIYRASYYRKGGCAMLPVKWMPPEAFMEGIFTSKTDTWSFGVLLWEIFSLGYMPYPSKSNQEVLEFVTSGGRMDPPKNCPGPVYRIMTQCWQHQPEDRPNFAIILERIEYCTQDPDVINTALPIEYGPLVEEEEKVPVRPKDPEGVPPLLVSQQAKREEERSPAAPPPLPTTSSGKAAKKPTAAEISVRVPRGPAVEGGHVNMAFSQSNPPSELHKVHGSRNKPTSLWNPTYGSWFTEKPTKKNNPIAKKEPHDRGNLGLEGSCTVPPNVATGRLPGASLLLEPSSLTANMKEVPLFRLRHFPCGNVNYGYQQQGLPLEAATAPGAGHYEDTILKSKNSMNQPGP

[2] = biological target: T1, ALK tyrosine kinase receptor
Target sequence in this assay (Q9UM73 whole entry): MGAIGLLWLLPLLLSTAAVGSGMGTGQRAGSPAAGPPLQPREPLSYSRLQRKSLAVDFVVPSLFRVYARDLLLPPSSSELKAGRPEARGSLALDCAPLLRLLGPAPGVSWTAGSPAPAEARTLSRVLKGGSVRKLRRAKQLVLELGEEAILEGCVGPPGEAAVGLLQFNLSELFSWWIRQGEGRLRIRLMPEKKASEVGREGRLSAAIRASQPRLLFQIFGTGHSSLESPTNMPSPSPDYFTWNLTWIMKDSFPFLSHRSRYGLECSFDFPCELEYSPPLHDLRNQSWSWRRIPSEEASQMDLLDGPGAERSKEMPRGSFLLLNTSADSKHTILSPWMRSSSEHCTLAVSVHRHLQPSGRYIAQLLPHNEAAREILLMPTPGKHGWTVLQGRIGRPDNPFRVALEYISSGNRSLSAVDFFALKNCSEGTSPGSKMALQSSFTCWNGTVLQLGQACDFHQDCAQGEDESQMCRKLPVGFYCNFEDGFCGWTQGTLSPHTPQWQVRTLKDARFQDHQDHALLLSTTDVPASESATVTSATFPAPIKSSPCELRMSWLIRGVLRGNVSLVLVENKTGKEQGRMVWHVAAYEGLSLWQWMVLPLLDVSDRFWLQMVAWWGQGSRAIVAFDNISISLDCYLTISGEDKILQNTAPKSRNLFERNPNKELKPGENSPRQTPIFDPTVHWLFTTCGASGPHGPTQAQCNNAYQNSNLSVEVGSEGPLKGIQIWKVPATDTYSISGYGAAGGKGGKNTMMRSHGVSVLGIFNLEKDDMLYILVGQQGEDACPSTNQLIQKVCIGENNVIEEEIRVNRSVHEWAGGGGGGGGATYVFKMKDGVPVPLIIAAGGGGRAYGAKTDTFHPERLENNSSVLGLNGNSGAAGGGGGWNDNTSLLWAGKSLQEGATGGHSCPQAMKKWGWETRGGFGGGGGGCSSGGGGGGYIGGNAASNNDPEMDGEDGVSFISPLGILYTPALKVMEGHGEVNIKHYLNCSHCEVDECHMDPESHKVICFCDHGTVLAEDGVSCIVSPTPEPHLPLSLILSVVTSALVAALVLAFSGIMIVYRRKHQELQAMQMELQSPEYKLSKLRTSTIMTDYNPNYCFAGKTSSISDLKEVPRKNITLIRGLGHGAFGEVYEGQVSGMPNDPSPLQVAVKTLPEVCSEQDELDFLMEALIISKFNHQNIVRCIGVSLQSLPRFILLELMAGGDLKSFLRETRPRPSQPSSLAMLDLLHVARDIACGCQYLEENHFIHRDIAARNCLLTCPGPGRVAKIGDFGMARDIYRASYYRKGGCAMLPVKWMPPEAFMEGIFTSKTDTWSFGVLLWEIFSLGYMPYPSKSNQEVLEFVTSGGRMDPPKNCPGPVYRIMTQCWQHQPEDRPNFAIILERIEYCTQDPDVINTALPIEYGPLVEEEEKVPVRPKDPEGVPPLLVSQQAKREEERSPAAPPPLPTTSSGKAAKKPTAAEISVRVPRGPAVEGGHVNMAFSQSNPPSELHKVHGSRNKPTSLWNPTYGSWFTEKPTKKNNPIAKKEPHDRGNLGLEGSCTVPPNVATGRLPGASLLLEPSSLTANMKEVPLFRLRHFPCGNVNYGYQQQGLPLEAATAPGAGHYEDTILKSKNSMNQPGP
Description: Inhibition of ALK (unknown origin) preincubated for 10 mins followed by addition of substrate and ATP for 25 mins by caliper EZ reader method

[3] = biological target: ALK tyrosine kinase receptor (Homo sapiens, UniProt Q9UM73, L1196M)
[4] = biological target: ALK tyrosine kinase receptor (Homo sapiens, UniProt Q9UM73, G1202R)
NCI-H2228 = assay: cells; assay type: functional, cell-based; conditions: Homo sapiens, NCI-H2228, 72 h
SH-SY5Y [5] = assay: Inhibition of colony formation in human SH-SY5Y cells at 0.1 to 0.4 uM incubated for 3 days followed by incubation in drug-free medium for 12 days by crystal violet staining based assay; assay type: functional, cell-based; conditions: dose 0.1-0.4 µM, time 3.0 day
MDA-MB-231 [6] = assay: Antimigratory activity against human MDA-MB-231 cells assessed as wound closure at 0.4 uM measured after 48 hrs by cell scratch assay (reference value: 30.3%); assay type: functional
MDA-MB-231 [7] = assay: Induction of apoptosis in human MDA-MB-231 cells assessed as increase in blue fluorescence intensity at 1 to 4 uM measured after 24 hrs by Hoechst33258 staining based fluorescence microscopy; assay type: functional, cell-based; conditions: dose 1-4 µM
MDA-MB-231 [8] = assay: Induction of apoptosis in human MDA-MB-231 cells assessed as viable cells at 1 uM measured after 24 hrs by Annexin V-FITC/PI staining based flowcytometry (reference value: 93.14%); assay type: functional; conditions: read-out: Activity
MDA-MB-231 [9] = assay: Induction of apoptosis in human MDA-MB-231 cells assessed as early apoptotic cells at 1 uM measured after 24 hrs by Annexin V-FITC/PI staining based flowcytometry ( Rvb = […]%); assay type: functional
MDA-MB-231 [10] = assay: Induction of apoptosis in human MDA-MB-231 cells assessed as early apoptotic cells at 2 uM measured after 24 hrs by Annexin V-FITC/PI staining based flowcytometry (reference value: 0.64%); assay type: functional
SH-SY5Y [11] = assay: Induction of apoptosis in human SH-SY5Y cells assessed as late apoptotic cells at 2 uM measured after 24 hrs by Annexin V-FITC/PI staining based flowcytometry (reference value: 14.32%); assay type: functional
SH-SY5Y [12] = assay: Induction of apoptosis in human SH-SY5Y cells assessed as early apoptotic cells at 4 uM measured after 24 hrs by Annexin V-FITC/PI staining based flowcytometry (reference value: 0.82%); assay type: functional
SH-SY5Y [13] = assay: Induction of apoptosis in human SH-SY5Y cells assessed as late apoptotic cells at 4 uM measured after 24 hrs by Annexin V-FITC/PI staining based flowcytometry (reference value: 14.32%); assay type: functional
MDA-MB-231 [14] = assay: Cell cycle arrest in human MDA-MB-231 cells assessed as accumulation of cells at G2 phase at 1 uM measured after 24 hrs by PI staining based flowcytometry method (reference value: 23.89%); assay type: functional
MDA-MB-231 [15] = assay: Cell cycle arrest in human MDA-MB-231 cells assessed as accumulation of cells at G1 phase at 2 uM measured after 24 hrs by PI staining based flowcytometry method (reference value: 55.32%); assay type: functional
MDA-MB-231 [16] = assay: Cell cycle arrest in human MDA-MB-231 cells assessed as accumulation of cells at G2 phase at 2 uM measured after 24 hrs by PI staining based flowcytometry method (reference value: 23.89%); assay type: functional
SH-SY5Y [17] = assay: Cell cycle arrest in human SH-SY5Y cells assessed as accumulation of cells at G2 phase at 1 uM measured after 24 hrs by PI staining based flowcytometry method (reference value: 13.23%); assay type: functional
SH-SY5Y [18] = assay: Cell cycle arrest in human SH-SY5Y cells assessed as accumulation of cells at G1 phase at 2 uM measured after 24 hrs by PI staining based flowcytometry method (reference value: 59.8%); assay type: functional
SH-SY5Y [19] = assay: Cell cycle arrest in human SH-SY5Y cells assessed as accumulation of cells at G2 phase at 4 uM measured after 24 hrs by PI staining based flowcytometry method (reference value: 13.23%); assay type: functional
[20] = biological target: T1, ALK tyrosine kinase receptor; assay: Inhibition of ALK in human MDA-MB-231 cells assessed as inhibition of ALK phosphorylation at Tyr1278 residue at 4 uM measured after 24 hrs by Western blot assay; assay type: cell-based
Target sequence in this assay (Q9UM73 19-1620 limits assumed): as the sequence (Q9UM73 19-1620 limits assumed) above

[21] = biological target: T1, ALK tyrosine kinase receptor; assay: Inhibition of human ALK in human SH-SY5Y cells assessed as inhibition of ERK phosphorylation at Thr202/Tyr204 residue at 4 uM measured after 24 hrs by Western blot assay; assay type: cell-based
Target sequence in this assay (Q9UM73 19-1620 limits assumed): as above

[22] = Volume of distribution at steady state in Sprague-Dawley rat at 1 mg/kg, iv measured for 12 hrs by LC-MS/MS analysis; assay type: ADME, organism-based; conditions: in vivo
HepG2 = assay: Potency index, ratio of crizotinib IC50 to test compound IC50 for human HepG2 cells assessed as inhibition of cell proliferation measured after 72 hrs by CCK8 assay; assay type: functional
A549 [23] = assay: Potency index, ratio of ceritinib IC50 to test compound IC50 for human A549 cells assessed as inhibition of cell proliferation measured after 72 hrs by CCK8 assay; assay type: functional
A549 [24] = assay: Potency index, ratio of crizotinib IC50 to test compound IC50 for human A549 cells assessed as inhibition of cell proliferation measured after 72 hrs by CCK8 assay; assay type: functional
[25] = Potency index, ratio of ceritinib IC50 to test compound IC50 for human SKNBE2 cells harboring wild type ALK assessed as inhibition of cell proliferation measured after 72 hrs by CCK8 assay; assay type: functional
SH-SY5Y [26] = assay: Potency index, ratio of ceritinib IC50 to test compound IC50 for human SH-SY5Y cells harboring ALK F1174L mutant assessed as inhibition of cell proliferation measured after 72 hrs by CCK8 assay; assay type: functional
MDA-MB-231 [27] = assay: Potency index, ratio of ceritinib IC50 to test compound IC50 for human MDA-MB-231 cells assessed as inhibition of cell proliferation measured after 72 hrs by CCK8 assay; assay type: functional
[28] = biological target: Histone deacetylase (Homo sapiens) (UniProt Q13547+O15379+Q9UBN7+Q92769+Q9UQL6+Q8WUI4+Q9BY41+Q96DB2+P56524+Q9UKV0+Q969S8); assay: Inhibition of HDAC in human SH-SY5Y cells assessed as increase of intracellular acetylated histone H3 level at 1 to 4 uM measured after 24 hrs by Western blot assay; assay type: cell-based; conditions: dose 1-4 µM
[29] = biological target: T1, ALK tyrosine kinase receptor; assay: Inhibition of ALK in human MDA-MB-231 cells assessed as inhibition of Akt phosphorylation at Ser473 residue measured after 24 hrs by Western blot assay; assay type: cell-based; conditions: dose 1-4 µM
Target sequence in this assay (Q9UM73 19-1620 limits assumed): as above

[30] = biological target: T1, ALK tyrosine kinase receptor; assay: Inhibition of human ALK in human SH-SY5Y cells assessed as inhibition of ALK phosphorylation at Tyr1278 residue measured after 24 hrs by Western blot assay; assay type: cell-based; conditions: dose 1-4 µM
Target sequence in this assay (Q9UM73 19-1620 limits assumed): as above

[31] = biological target: T1, ALK tyrosine kinase receptor; assay: Inhibition of human ALK in human SH-SY5Y cells assessed as inhibition of Akt phosphorylation at Ser473 residue measured after 24 hrs by Western blot assay; assay type: cell-based; conditions: dose 1-4 µM
Target sequence in this assay (Q9UM73 19-1620 limits assumed): as above

Histone deacetylase 1 = Histone deacetylase 1 (Homo sapiens, UniProt Q13547); assay: biochemical
Chain of Histone deacetylase 1 (Q13547 whole entry): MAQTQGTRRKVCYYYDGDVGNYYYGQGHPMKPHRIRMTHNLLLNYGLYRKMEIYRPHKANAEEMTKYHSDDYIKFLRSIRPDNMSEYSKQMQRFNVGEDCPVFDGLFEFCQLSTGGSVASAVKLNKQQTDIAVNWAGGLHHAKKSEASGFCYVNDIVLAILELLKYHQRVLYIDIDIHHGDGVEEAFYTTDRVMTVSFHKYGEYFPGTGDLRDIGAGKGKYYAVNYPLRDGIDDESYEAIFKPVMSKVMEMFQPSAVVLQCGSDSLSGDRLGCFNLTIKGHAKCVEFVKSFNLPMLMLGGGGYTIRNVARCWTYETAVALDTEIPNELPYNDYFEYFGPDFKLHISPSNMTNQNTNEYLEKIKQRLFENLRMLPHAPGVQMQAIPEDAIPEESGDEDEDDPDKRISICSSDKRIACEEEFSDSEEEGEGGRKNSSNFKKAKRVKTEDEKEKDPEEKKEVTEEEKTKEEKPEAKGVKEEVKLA
Description: Inhibition of recombinant human C-terminal His/FLAG-tagged HDAC1 (1 to 482 residues) expressed in Sf9 insect cells using Ac-peptide-AMC as substrate preincubated for 15 mins followed by addition of substrate and trypsin measured by flourescence assay

Chain of ALK tyrosine kinase receptor (Homo sapiens, UniProt Q9UM73, G1202R) (Q9UM73 19-1620 G1202R limits assumed): as the sequence (Q9UM73 19-1620 limits assumed) above, with G1184R counted along it
Chain of ALK tyrosine kinase receptor (Homo sapiens, UniProt Q9UM73, L1196M) (Q9UM73 19-1620 L1196M limits assumed): as the sequence (Q9UM73 19-1620 limits assumed) above, with L1178M counted along it

In the case of `CC(C)S(=O)(=O)c1ccccc1Nc1nc(Nc2ccc(NC(=O)CCCCCCC(=O)NO)cc2)ncc1Cl`, the inhibition [1] is reported as 80.8%, the IC50 [2] is reported as 2.1 nM and the IC50 [3] is reported as 1.7 nM. The IC50 [4] was 0.4 nM, the IC50 (NCI-H2228) was 130 nM and the inhibition (SH-SY5Y [5]) was “Active”. The Activity (MDA-MB-231 [6]) was 3.7%, the Activity (MDA-MB-231 [7]) was “Active” and the viability at 1 µM (MDA-MB-231 [8]) was 87.9%. For the same molecule, the Activity (MDA-MB-231 [9]) was 1.96%, the Activity (MDA-MB-231 [10]) was 5.5% and the Activity (SH-SY5Y [11]) was 28.89%. It also gave an Activity (SH-SY5Y [12]) of 5.34%, an Activity (SH-SY5Y [13]) of 45.5% and an Activity (MDA-MB-231 [14]) of 32.53%. For the same molecule, the Activity (MDA-MB-231 [15]) was 32.53%, the Activity (MDA-MB-231 [16]) was 49.05% and the Activity (SH-SY5Y [17]) was 48.7%. For the same molecule, the Activity (SH-SY5Y [18]) was 3.56%, the Activity (SH-SY5Y [19]) was 88.07% and the inhibition [20] was “Active”. For the same molecule, the inhibition [21] was “Active”, the Vdss [22] was 3.3 L/kg and the “Ratio IC50” value (HepG2) was 3. For the same molecule, the “Ratio IC50” value (A549 [23]) was 3, the “Ratio IC50” value (A549 [24]) was 3 and the “Ratio IC50” value [25] was 3. The “Ratio IC50” value (SH-SY5Y [26]) was 3, the “Ratio IC50” value (MDA-MB-231 [27]) was 3 and the inhibition [28] was “Active”. For the same molecule, the inhibition [29] was “Dose-Dependent Effect”, the inhibition [30] was “Dose-Dependent Effect” and the inhibition [31] was “Dose-Dependent Effect”. It also gave an IC50 (Histone deacetylase 1) of 7.9 nM.
